System: SARS-Cov-2 virus particles
Assay: RT-qPCR screening of surfactant treatment solutions for disruption of SARS-CoV-2 virus particles
Settings: for effect of heating the virus-surfactant mixture on Cq values (compatibility with RT-qPCR): then 92° C. for 5 minutes
[1] = Example 1, 2X concentration per surfactant, 30 minutes ambient, without heating
[2] = Example 2, surfactant 0.02-0.08%, absence of a heating step

Compound | disruption of virus particles (Cq vs virus in Tris-EDTA buffer) [1] | effect of heating the virus-surfactant mixture on Cq values (compatibility with RT-qPCR) (Example 1, 30 minutes ambient) | other results
C[C@H](CCC(=O)NCCC[N+](C)(C)CC(O)CS(=O)(=O)[O-])[C@H]1CC[C@H]2[C@@H]3[C@H](O)C[C@@H]4C[C@H](O)CC[C@]4(C)[C@H]3C[C@H](O)[C@]12C (stereo partly drawn) [CHAPSO, 3-[(3-cholamidopropyl)dimethylammonio]-2-hydroxy-1-propanesulfonate] | ineffective at disrupting the virus particles | compatible with RT-qPCR | 
CCCCCCCCCC[N+](C)(C)CCCCCCCCCC.[Br-] [DDAB, Didecyldimethylammonium bromide] | effective at disrupting the virus particles | higher average Cq values | 
CCCCCCCCCC[N+](C)(C)C.[Br-] [DeTAB] |  | compatible with RT-qPCR | 
CCCCCCCCCCCC[N+](C)(C)C.[Br-] [DoTAB] | ineffective at disrupting the virus particles |  | 
CCCCCCCCCCCC[N+](C)(C)CC.[Br-] [EDMAB, Dodecylethyldimethylammonium bromide] | ineffective at disrupting the virus particles | compatible with RT-qPCR | 
CCCCCCCCCCCC[N+](C)(C)[O-] [LDAO, N,N Dimethydodecylamine-N-oxide] | effective at disrupting the virus particles |  | disruption of virus particles (Cq vs virus in Tris-EDTA buffer) [2]: effective at disrupting the virus particles; virus disruption vs incubation time (Example 3, 0.02% LDAO solution (2X), 0 to 60 minutes room temperature, no heating): rapidly disrupted the virus particles
O=S(=O)([O-])CCC[n+]1ccccc1 [NDSB201] | ineffective at disrupting the virus particles |  | 
CCCCCCCCCCCC(=O)OCCOCCOCCOCCOCCOCCOCCOCCOCCOCCOCCOCCOCCOCCOCCOCCOCCOCCOCCOCCOCC(OCCOCCOCCOCCOCCOCCOCCOCCOCCOCCOCCOCCOCCOCCOCCOCCOCCOCCOCCOCCO)C1OCC(OCCOCCOCCOCCOCCOCCOCCOCCOCCOCCOCCOCCOCCOCCOCCOCCOCCOCCOCCOCCO)C1OCCOCCOCCOCCOCCOCCOCCOCCOCCOCCOCCOCCOCCOCCOCCOCCOCCOCCOCCOCCO (stereo not drawn) [Tween 20, polysorbate 20] | effective at disrupting the virus particles |  | 
CCCCCCCC/C=C\CCCCCCCC(=O)OCCOCC(OCCO)C1OCC(OCCO)C1OCCO (stereo not drawn) [Tween 80] | ineffective at disrupting the virus particles | compatible with RT-qPCR | 
CCCCCCCCCCCCCC[N+](C)(C)CCCS(=O)(=O)[O-] [Zwittergent 3-14, n-Tetradecyl-N,N-dimethyl-3-ammonio-1-propanesulfonate] | effective at disrupting the virus particles |  | disruption of virus particles (Cq vs virus in Tris-EDTA buffer) [2]: effective at disrupting the virus particles
Benzalkonium Chloride [BZK] | effective at disrupting the virus particles |  | effect on downstream RT-qPCR (Example 2, surfactant 0.08%): inhibitory to downstream RT-qPCR
N-(Alkyl C10-C16)-N,N-dimethylglycine betaine [Empigen BB] | effective at disrupting the virus particles |  | 
nonyl phenoxypolyethoxylethanol [NP-40 alternative] | effective at disrupting the virus particles |  | 

Source: patent publication US20250270619A1, “COMPOSITIONS, KITS AND METHODS FOR DIRECT AMPLIFICATION FROM CRUDE BIOLOGICAL SAMPLES” (LIFE TECHNOLOGIES CORPORATION, priority 2021, published 2025)
